Like-named read-outs stand apart in the source and are kept apart here.
Legend:
[1] = target: T1, cytoplasmic domain of the human CSF-1R (Homo sapiens, UniProt P07333); assay: In vitro kinase assay for colony stimulating factor-1 receptor (AlphaScreen); format: biochemical; conditions: tested at about 1 μM, read-out: CSF-1R percent inhibition
T1 construct: Recombinant protein corresponding to the cytoplasmic domain of the human CSF-1R; purchased Invitrogen Corporation, Carlsbad, Calif; PV3249
T1 sequence (P07333 539-972 limits assumed): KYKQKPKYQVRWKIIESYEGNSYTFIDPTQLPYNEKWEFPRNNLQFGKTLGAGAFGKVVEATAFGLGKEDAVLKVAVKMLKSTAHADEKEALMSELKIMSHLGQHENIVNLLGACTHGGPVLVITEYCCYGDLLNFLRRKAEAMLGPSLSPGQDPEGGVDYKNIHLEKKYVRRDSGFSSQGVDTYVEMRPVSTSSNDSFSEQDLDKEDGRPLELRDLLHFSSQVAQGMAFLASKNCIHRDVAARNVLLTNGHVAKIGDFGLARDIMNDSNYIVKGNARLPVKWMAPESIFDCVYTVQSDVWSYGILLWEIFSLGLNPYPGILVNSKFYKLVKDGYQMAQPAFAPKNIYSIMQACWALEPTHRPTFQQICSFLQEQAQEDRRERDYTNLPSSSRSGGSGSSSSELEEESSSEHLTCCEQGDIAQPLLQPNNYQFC
How it was run: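 AlphaScreen read-out (PT66 anti-pTyr acceptor beads, streptavidin donor beads, overnight incubation) measured phosphorylated peptide product. The product was formed by the human CSF-1R cytoplasmic domain at 4 nM with 1 µM ATP in Mg2+/Mn2+ HEPES buffer, pH 7.5. Compound dilution series were 3-fold, starting at 25 µM.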

kinase domain of PDGFRβ = target: T2, kinase domain of PDGFRβ (Homo sapiens, UniProt P09619); assay: Inhibition of PDGFRb kinase signaling in an in vitro biochemical assay (alphascreen); conditions: tested at about 1 μM, read-out: PDGFRβ percent inhibition
T2 construct: The kinase domain of PDGFRβ was assayed in 50 mM Hepes; purchased Invitrogen P3082

[2] = tested on: MNFS60 (murine AML cells); assay: Cell viability assay in MCSF dependent MNFS60 cells (Cell Titer Glo); format: cell-based; conditions: Mus musculus, tested at about 1 μM; MNFS60 cells; read-out: M-NFS-60 CP percent inhibition
Procedure: Cell viability was assessed by Cell Titer Glo, Promega. […] Test compounds were serially diluted (3 fold) in DMSO to 500× the final concentration. […] Final concentration of MCSF is 10 ng/ml. Cells were incubated for 72 hrs at 37° C., 5% CO2. After the incubation 100 μl Cell Titer Glo is added to each well to determine viable cells. The assay was performed according to the manufacturer's instruction (Promega Corporation, Madison, Wis. USA). Each experimental condition was performed in triplicate. Raw data was imported in Abase and EC50s calculated with XL-fit data analysis software.

kinase domain of cKIT = target: T3, kinase domain of cKIT (Homo sapiens, UniProt P10721); assay: Inhibition of cKIT kinase signaling in an in vitro biochemical assay (alphascreen); conditions: tested at about 1 μM, read-out: cKit percent inhibition
T3 construct: The kinase domain of cKIT was assayed in 50 mM Hepes; purchased Upstate 14-559
T3 sequence (P10721 589-937 limits assumed): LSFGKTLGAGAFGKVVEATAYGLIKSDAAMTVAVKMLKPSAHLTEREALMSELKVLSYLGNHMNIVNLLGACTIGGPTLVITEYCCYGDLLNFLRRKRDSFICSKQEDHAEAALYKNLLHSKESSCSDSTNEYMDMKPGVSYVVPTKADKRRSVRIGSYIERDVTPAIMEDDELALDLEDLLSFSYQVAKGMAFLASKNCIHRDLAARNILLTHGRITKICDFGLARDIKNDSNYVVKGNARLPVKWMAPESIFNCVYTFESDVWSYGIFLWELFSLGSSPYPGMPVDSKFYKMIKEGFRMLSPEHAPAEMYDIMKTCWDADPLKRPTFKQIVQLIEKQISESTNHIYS

T2 sequence (P09619 600-962 limits assumed): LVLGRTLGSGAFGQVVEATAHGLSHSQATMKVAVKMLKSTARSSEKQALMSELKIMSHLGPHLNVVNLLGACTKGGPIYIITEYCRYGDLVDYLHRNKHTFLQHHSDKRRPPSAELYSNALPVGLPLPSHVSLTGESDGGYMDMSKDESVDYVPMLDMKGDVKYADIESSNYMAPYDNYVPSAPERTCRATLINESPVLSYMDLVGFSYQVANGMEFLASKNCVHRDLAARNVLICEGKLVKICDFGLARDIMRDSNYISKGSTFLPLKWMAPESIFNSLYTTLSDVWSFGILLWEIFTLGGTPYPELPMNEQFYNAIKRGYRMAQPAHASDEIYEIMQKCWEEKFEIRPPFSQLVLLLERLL

SMILES | inhibition at 1 µM [1] | inhibition at 1 µM (kinase domain of PDGFRβ) | inhibition at 1 µM [2] | inhibition at 1 µM (kinase domain of cKIT) | inhibition at 1 µM ([1]; compounds of Table 3) | inhibition at 1 µM (kinase domain of cKIT; compounds of Table 3) | inhibition at 1 µM (kinase domain of PDGFRβ; compounds of Table 3)
CNC(=O)c1cc(Oc2ccc3nc(NCc4ccccn4)oc3c2)ccn1 [Compound 40, 4-{2-[(Pyridin-2-ylmethyl)-amino]-benzooxazol-6-yloxy}-pyridine-2-carboxylic acid methylamide] | 99% | 6% | 0% |  |  |  | 
CNC(=O)c1cc(Oc2ccc3nc(Nc4ccccc4N4CCOCC4)oc3c2)ccn1 [Compound 3, 4-[2-(2-Morpholin-4-yl-phenylamino)-benzooxazol-6-yloxy]-pyridin-2-carboxylic acid methylamide] | 96% |  | 0% |  |  |  | 
CNC(=O)c1cc(Oc2ccc3nc(N[C@H]4CCN(C(C)=O)C4)sc3c2)ccn1 [Example 305, (S)-4-(2-(1-acetylpyrrolidin-3-ylamino)benzo[d]thiazol-6-yloxy)-N-methylpicolinamide] | 87% | 7% |  | 15% |  |  | 
CNC(=O)c1cc(Oc2ccc3nc(NCc4c(F)cccc4Cl)oc3c2)ccn1 [Compound 78, 4-[2-(2-Chloro-6-fluoro-benzylamino)-benzooxazol-6-yloxy]-pyridine-2-carboxylic acid methylamide] | 87% | 0% |  | 9% |  |  | 
CNC(=O)c1cc(Oc2ccc3nc(N[C@@H]4CCC(=O)NC4)sc3c2)ccn1 [Compound 86] |  |  |  |  | 63% | 15% | 32%
CNC(=O)c1cc(Oc2ccc3nc(N[C@@H](C(=O)OC)c4ccccc4)oc3c2)ccn1 [Compound 53, (R)-[6-(2-Methylcarbamoyl-pyridin-4-yloxy)-benzooxazol-2-ylamino]-phenyl-acetic acid methyl ester] | 95% | 0% |  | 21% |  |  | 
CNC(=O)c1cc(Oc2ccc3nc(NC4CCCC(NC(C)=O)C4)sc3c2)ccn1 (stereo not shown) [Example 296, 4-(2-(3-acetamidocyclohexylamino)benzo[d]thiazol-6-yloxy)-N-methylpicolinamide] |  |  |  |  | 97% | 1% | 9%
CNC(=O)c1cc(Oc2ccc3nc(N[C@H]4CCCC[C@H]4NC(=O)[C@H]4CCCO4)sc3c2)ccn1 [Example 309, N-methyl-4-(2-((1S,2R)-2-((R)-tetrahydrofuran-2-carboxamido)cyclohexylamino)benzo[d]thiazol-6-yloxy)picolinamide] | 74% | 13% |  | 6% |  |  | 
CN(C)C(=O)c1cc(Oc2ccc3nc(N[C@@H]4CCCC[C@H]4O)sc3c2)ccn1 [Compound 10] |  |  |  |  | 67% | 0% | 9%
c1cc(Oc2ccc3nc(NCC4CCCCC4)oc3c2)cc(-c2nnco2)n1 [Compound 81, Cyclohexylmethyl-[6-(2-[1,3,4]oxadiazol-2-yl-pyridin-4-yloxy)-benzooxazol-2-yl]-amine] | 54% | 0% |  | 16% |  |  | 
CNC(=O)c1cc(Oc2ccc3nc(N[C@H]4CC[C@@H](NC(=O)[C@@H]5CCCN5C)CC4)sc3c2)ccn1 [Compound 137] |  |  |  |  | 71% | 8% | 2%
CNC(=O)c1cc(Oc2ccc3nc(N[C@H](CCO)c4ccccc4)oc3c2)ccn1 [Compound 51, 4-[2-((R)-3-Hydroxy-1-phenyl-propylamino)-benzooxazol-6-yloxy]-pyridine-2-carboxylic acid methylamide] | 95% | 2% |  | 40% |  |  | 
CNC(=O)c1cc(Oc2ccc3nc(NCCN4CCCC4)oc3c2)ccn1 [Compound 63, 4-[2-(2-Pyrrolidin-1-yl-ethylamino)-benzooxazol-6-yloxy]-pyridin-2-carboxylic acid methylamide] | 45% | 3% |  | 6% |  |  | 
CNC(=O)c1cc(Oc2ccc3nc(NCC4(C(=O)NC)CCCCC4)oc3c2)ccn1 [Compound 112, 4-{2-[(1-Methylcarbamoyl-cyclohexylmethyl)-amino]-benzooxazol-6-yloxy}-pyridine-2-carboxylic acid methylamide] | 28% | 5% |  | 0% |  |  | 
O=C(O)c1cc(Oc2ccc3nc(NCC4CCCCC4)oc3c2)ccn1 [Compound 60, 4-[2-(Cyclohexylmethyl-amino)-benzooxazol-6-yloxy]-pyridine-2-carboxylic acid] | 92% | 2% |  | 6% |  |  | 
CNC(=O)c1cc(Oc2ccc3nc(Nc4ccc(Br)cc4)oc3c2)ccn1 [Compound 1, 4-[2-(4-Bromo-phenylamino)-benzooxazol-6-yloxy]-pyridine-2-carboxylic acid methylamide] | 99% |  | 21% |  |  |  | 
CNC(=O)c1cc(Oc2ccc3nc(NC[C@H](C)O)sc3c2)ccn1 [Compound 100] |  |  |  |  | 81% | 0% | 6%
CNC(=O)c1cc(Oc2ccc3nc(NC(C)C)oc3c2)ccn1 [Compound 98, 4-(2-Isopropylamino-benzo-oxazol-6-yloxy)-pyridine-2-carboxylic acid methylamide] | 26% | 0% |  | 7% |  |  | 
CNC(=O)c1cc(Oc2ccc3nc(N[C@H]4CCCC[C@H]4NC(=O)NC(C)C)sc3c2)ccn1 [Example 301, 4-(2-((1S,2R)-2-(3-isopropylureido)cyclohexyl-amino)benzo[d]thiazol-6-yloxy)-N-methylpicolinamide] | 55% | 7% |  | 0% |  |  | 
CNC(=O)c1cc(Oc2ccc3nc(NCCN4CCCCC4)oc3c2)ccn1 [Compound 64, 4-[2-(2-Piperidin-1-yl-ethyl-amino)-benzooxazol-6-yloxy]-pyridine-2-carboxylic acid methylamide] | 77% | 21% |  | 0% |  |  | 
CNC(=O)c1cc(Oc2ccc3nc(N[C@@H](C(=O)NC)c4ccccc4)oc3c2)ccn1 [Compound 36, 4-{2-[((R)-Methylcarbamoyl-phenyl-methyl)-amino]-benzo-oxazol-6-yloxy}-pyridine-2-carboxylic acid methylamide] | 78% | 6% |  | 0% |  |  | 
CNC(=O)c1cc(Oc2ccc3nc(N[C@@H]4CCN(C(C)=O)C4)sc3c2)ccn1 [Example 303, (R)-4-(2-(1-acetylpyrrolidin-3-ylamino)benzo[d]thiazol-6-yloxy)-N-methylpicolinamide] | 74% | 12% |  | 24% |  |  | 
CNC(=O)c1cc(Oc2ccc3nc(Nc4ccc(Cl)c(C(F)(F)F)c4)sc3c2)ccn1 [Compound 126, 4-[2-(4-Chloro-3-trifluoromethyl-phenylamino)-benzothiazol-6-yloxy]-pyridine-2-carboxylic acid methylamide] | 68% | 99% |  | 83% |  |  | 
CCN1CCC[C@H]1CNC(=O)c1cc(Oc2ccc3nc(N[C@@H]4CCCC[C@H]4O)sc3c2)ccn1 [Compound 20] |  |  |  |  | 76% | 0% | 0%
